# Source: patent US10047105B2, “Gyrase inhibitors” (Merck Sharp & Dohme Corp., priority 2009, dated 2018)
# Key:
# S. aureus ATCC 13709 = assay: MIC, antibacterial potency, S. aureus; type: cell-based
# S. pneumoniae ATCC 51916 = assay: MIC, S. pneumoniae; type: cell-based
# [1] = S. pneumoniae (Spn52), in µg/mL
SMILES,"MIC, SA (S. aureus ATCC 13709; S. aureus) [µg/mL]",also measured
"CCc1[nH]c2nc(Oc3cncc(C#N)c3)nc(Oc3cccc(C#N)c3)c2c1Br.O=C(O)C(F)(F)F [700,793]",,"MIC, SA (S. aureus ATCC 13709; S. aureus (SA), in µg/mL): <=0.5; MIC Spn52 (S. pneumoniae ATCC 51916; [1]): <=0.5"
"CCc1[nH]c2nc(Sc3nc4ccccc4s3)nc(N)c2c1C [700,147]",> 64,
"CCc1[nH]c2nc(Oc3ccc(OC)nc3)nc(Oc3ccc(OC)nc3)c2c1Cl.O=C(O)C(F)(F)F [700,592]",> 64,MIC Spn52 (S. pneumoniae ATCC 51916; S. pneumoniae): 4 µg/mL
"CCc1[nH]c2nc(Sc3cnc4nccnc4c3)nc(N3CCC[C@H]3CO)c2c1Cl [700,426]",1,MIC Spn52 (S. pneumoniae ATCC 51916; S. pneumoniae): 1 µg/mL
"CCc1[nH]c2nc(Sc3cnc4nccnc4c3)nc(N3CCC(CN4CCCC4=O)CC3)c2c1Cl [700,815]",,"MIC, SA (S. aureus ATCC 13709; S. aureus (SA), in µg/mL): 2; MIC Spn52 (S. pneumoniae ATCC 51916; [1]): 2"
"CCc1[nH]c2nc(Sc3cnc4nccnc4c3)nc(N3CCCC(CO)C3)c2c1Cl (stereo not drawn) [700,425]",≤ 0.5,MIC Spn52 (S. pneumoniae ATCC 51916; S. pneumoniae): 2 µg/mL
"CCOc1nc(Sc2cccnc2)nc2[nH]c(CC)c(Br)c12.O=C(O)C(F)(F)F [700,275]",1,MIC Spn52 (S. pneumoniae ATCC 51916; S. pneumoniae): 8 µg/mL
"CCc1[nH]c2nc(Sc3cnc4cccnc4c3)nc(N3CC4CC3CC4N)c2c1Cl (stereo not drawn) [700,857]",,"MIC, SA (S. aureus ATCC 13709; S. aureus (SA), in µg/mL): 1; MIC Spn52 (S. pneumoniae ATCC 51916; [1]): 1"
"CCc1[nH]c2nc(Sc3ccc4ccc(C(=O)O)nc4c3)nc(N3CC(NC(=O)C4CC4)C3)c2c1Cl [700,807]",,"MIC, SA (S. aureus ATCC 13709; S. aureus (SA), in µg/mL): 2; MIC Spn52 (S. pneumoniae ATCC 51916; [1]): 8"
"CCc1[nH]c2nc(Sc3cnc4nccnc4c3)nc(N3CC4CNCC43)c2c1Cl.O=C(O)C(F)(F)F (stereo not drawn) [700,566]",> 64,MIC Spn52 (S. pneumoniae ATCC 51916; S. pneumoniae): 64 µg/mL
"CCc1[nH]c2nc(Sc3cnc4nccnc4c3)nc(N3CC(Oc4ccc(C(F)(F)F)cc4)C3)c2c1Cl.O=C(O)C(F)(F)F [700,669]",> 64,MIC Spn52 (S. pneumoniae ATCC 51916; S. pneumoniae): > 64 µg/mL
"CCc1[nH]c2nc(Sc3ccc4c(N5CC(N)C5)ncnc4c3)nc(N3CCC(N)C3)c2c1Cl (stereo not drawn) [700,597]",16,MIC Spn52 (S. pneumoniae ATCC 51916; S. pneumoniae): 16 µg/mL
"CCOC(=O)Cn1c(=O)cc(Sc2nc(N3CC(O)C3)c3c(Br)c(CC)[nH]c3n2)[nH]c1=O [700,386, Ethyl 2-(4-(5-bromo-6-ethyl-4-(3-hydroxyazetidin-1-yl)-7H-pyrrolo[2,3-d]pyrimidin-2-ylthio)-2,6-dioxo-2,3-dihydropyrimidin-1 (6H)-yl)acetate]",≤ 0.5,MIC Spn52 (S. pneumoniae ATCC 51916; S. pneumoniae): 8 µg/mL
"CCc1[nH]c2nc(Sc3cnc4nccnc4c3)nc(Oc3cccc(C#N)c3)c2c1Cl [700,833]",,"MIC, SA (S. aureus ATCC 13709; S. aureus (SA), in µg/mL): <=0.5; MIC Spn52 (S. pneumoniae ATCC 51916; [1]): 2"
"CCc1[nH]c2nc(Sc3ccc4nnc(C(=O)NCCN5CCCC5)nc4c3)nc(N3CC[C@@H](N)C3)c2c1Cl [700,844]",,"MIC, SA (S. aureus ATCC 13709; S. aureus (SA), in µg/mL): 64; MIC Spn52 (S. pneumoniae ATCC 51916; [1]): 32"
"CCc1[nH]c2nc(Oc3cncnc3)nc(N3CC(O)C3)c2c1Cl.O=C(O)C(F)(F)F [700,458]",2,MIC Spn52 (S. pneumoniae ATCC 51916; S. pneumoniae): 8 µg/mL
"CCc1[nH]c2nc(Sc3cnc4nccnc4c3)nc(N3CC(C(N)=O)C3)c2c1Cl.O=C(O)C(F)(F)F [700,670]",16,MIC Spn52 (S. pneumoniae ATCC 51916; S. pneumoniae): 16 µg/mL
"CCc1[nH]c2nc(Sc3cnc4nccnc4c3)nc(N(C)Cc3cccnc3)c2c1Cl.O=C(O)C(F)(F)F [700,546]",4,MIC Spn52 (S. pneumoniae ATCC 51916; S. pneumoniae): 16 µg/mL
"CCc1[nH]c2nc(Sc3cnc4nccnc4c3)nc(N3CCC[C@H]3COC)c2c1Cl [700,688]",≤ 0.5,MIC Spn52 (S. pneumoniae ATCC 51916; S. pneumoniae): ≤ 0.5 µg/mL
"CCc1[nH]c2nc(Oc3cncc(C#N)c3)nc(Oc3cncc(C#N)c3)c2c1Cl.O=C(O)C(F)(F)F [700,723]",≤ 0.5,MIC Spn52 (S. pneumoniae ATCC 51916; S. pneumoniae): 2 µg/mL
"O=C(O)C(F)(F)F.OCCc1[nH]c2nc(Oc3cccnc3)nc(Oc3cncnc3)c2c1Cl [700,577]",> 64,MIC Spn52 (S. pneumoniae ATCC 51916; S. pneumoniae): > 64 µg/mL
"CCc1[nH]c2nc(Sc3ccc4ccc(C(=O)O)nc4c3)nc(N3CC(CNC(=O)C4CC4)C3)c2c1Cl [700,804]",,"MIC, SA (S. aureus ATCC 13709; S. aureus (SA), in µg/mL): 4; MIC Spn52 (S. pneumoniae ATCC 51916; [1]): 16"
"CCc1[nH]c2nc(Sc3ccc4nc(C)cc(C(=O)O)c4c3)nc(N3CC[C@@H](N)C3)c2c1Cl [700,708, (R)-6-(4-(3-aminopyrrolidin-1-yl)-5-chloro-6-ethyl-7H-pyrrolo[2,3-d]pyrimidin-2-ylthio)-2-methylquinoline-4-carboxylic acid]",32,MIC Spn52 (S. pneumoniae ATCC 51916; S. pneumoniae): > 64 µg/mL

SMILES,"MIC, SA (S. aureus ATCC 13709; S. aureus) [µg/mL]",also measured
"CCc1[nH]c2nc(Sc3cccnc3)nc(NCc3ccccc3OC)c2c1C=O [700,091]",> 64,
"CCc1[nH]c2nc(Sc3cccnc3)nc(N(C)C)c2c1C=O [700,136]",16,
"CCc1[nH]c2nc(Sc3nc4ccccc4s3)nc(NC[C@H](C)O)c2c1C=O [700,100]",> 64,
"CCc1[nH]c2nc(Sc3cccnc3)nc(NCCO)c2c1C=O [700,096]",> 64,
"CCc1[nH]c2nc(Sc3nc4ccccc4s3)nc(NCc3cccnc3)c2c1C=O [700,103]",> 64,
"CCc1[nH]c2nc(Sc3nc4ccccc4s3)nc(NCCN3CCOCC3)c2c1C=O [700,102]",> 64,
"CCc1[nH]c2nc(Sc3cccnc3)nc(NC(C)C)c2c1C=O [700,093]",> 64,
"CCc1[nH]c2nc(Sc3cccnc3)nc(N3CCN(CC(=O)N(C)C)CC3)c2c1C=O [700,085]",> 64,
"CCc1[nH]c2nc(Sc3cccnc3)nc(NCc3cccc(S(C)(=O)=O)c3)c2c1C=O.Cl [700,098]",> 64,
"CCc1[nH]c2nc(Sc3cnc4ccccc4n3)nc(N)c2c1C [700,149]",> 64,
"CCc1[nH]c2nc(Sc3cccnc3)nc(N[C@H](C)CO)c2c1C=O [700,131]",64,
"CCc1[nH]c2nc(Sc3nc4ccccc4s3)nc(NCCCN3CCOCC3)c2c1C=O [700,106]",> 64,
"CCOC(=O)c1ccc(CNc2nc(Sc3cccnc3)nc3[nH]c(CC)c(C=O)c23)o1 [700,135]",> 64,
"CCc1[nH]c2nc(Sc3cccnc3)nc(NC34CC5CC(C3)C(=O)C(C5)C4)c2c1C=O [700,142]",32,
"CCc1[nH]c2nc(Sc3cccc(C(=O)O)c3)nc(NC[C@H](C)O)c2c1C=O [700,127]",> 64,
"CCc1[nH]c2nc(Sc3cccnc3)nc(NC3CCCC[C@H]3O)c2c1C=O (stereo partly drawn) [700,132]",32,
"CCc1[nH]c2nc(Sc3cccnc3)nc(OC)c2c1C=O [700,129]",16,
"C#CCNc1nc(Sc2nc3ccccc3s2)nc2[nH]c(CC)c(C=O)c12 [700,104]",> 64,
"CCc1[nH]c2nc(Sc3cccnc3)nc(NCC3CCCO3)c2c1C=O (stereo not drawn) [700,092]",64,
"CCc1[nH]c2nc(Sc3nc4ccccc4s3)nc(Cl)c2c1C=O [700,099]",> 64,
"CCc1[nH]c2nc(Sc3nc4ccccc4s3)nc(NN)c2c1C=O [700,108]",> 64,
"CCc1[nH]c2nc(Sc3cccnc3)nc(NCCOc3ccccc3)c2c1C=O [700,079]",> 64,
"CCc1[nH]c2nc(Sc3cccnc3)nc(NC(C)C)c2c1C(C)=O [700,122]",> 64,

SMILES,"MIC, SA (S. aureus ATCC 13709; S. aureus) [µg/mL]",also measured
"CCc1[nH]c2nc(Sc3cccnc3)nc(NCC3CCCCC3)c2c1C=O [700,078]",> 64,
"CCOCCNc1nc(Sc2cccnc2)nc2[nH]c(CC)c(C=O)c12 [700,082]",> 64,
"CCc1[nH]c2nc(Sc3cccnc3)nc(NCC(C)C)c2c1C=O [700,076]",> 64,
"CCc1[nH]c2nc(Sc3nc4ccccc4s3)nc(NC(C)C)c2c1C=O [700,101]",> 64,
"CCc1[nH]c2nc(Sc3cccnc3)nc(NCCCCCC(=O)O)c2c1C=O [700,141]",64,
"CCc1[nH]c2nc(Sc3cccnc3)nc(NCc3ccc(C)o3)c2c1C=O [700,077]",> 64,
"CCc1[nH]c2nc(Sc3nc4ccccc4s3)nc(Cl)c2c1CO [700,109]",> 64,
"CCc1[nH]c2nc(Sc3cccnc3)nc(N[C@H]3CCCC[C@@H]3N)c2c1C=O [700,133]",> 64,
"CCc1[nH]c2nc(Sc3nc4ccccc4s3)nc(NCCCn3ccnc3)c2c1C=O [700,107]",> 64,
"CCc1[nH]c2nc(Sc3cccnc3)nc(NCC(O)CO)c2c1C=O (stereo not drawn) [700,090]",> 64,
"CCOc1nc(Sc2cccnc2)nc2[nH]c(CC)c(C=O)c12 [700,130]",8,
"CCc1[nH]c2nc(Sc3cccnc3)nc(Cl)c2c1C=O [700,075]",64,
"CCc1[nH]c2nc(Sc3cccnc3)nc(Cl)c2c1C(C)=O [700,119]",64,
"CCc1[nH]c2nc(Sc3cccnc3N)nc(Cl)c2c1C=O [700,088]",> 64,
"CCc1[nH]c2nc(Sc3cccnc3)nc(NCc3ccccc3)c2c1C=O [700,080]",> 64,
"CCNc1nc(Sc2nc3ccccc3s2)nc2[nH]c(CC)c(C=O)c12 [700,105]",> 64,
"CCc1[nH]c2nc(Sc3cc(=O)n(CCc4ccccc4)c(=O)[nH]3)nc(N3CC(O)C3)c2c1Br [700,413]",,MIC Spn52 (S. pneumoniae ATCC 51916; S. pneumoniae): 8 µg/mL
"CCc1[nH]c2nc(Sc3cccnc3)nc(NCCCn3ccnc3)c2c1C(C)=O [700,121]",32,
"CCc1[nH]c2nc(Sc3cccnc3)nc(NCCOC)c2c1C=O [700,094]",64,
"CCc1[nH]c2nc(SCc3cccnc3)nc(N)c2c1C [700,148]",> 64,
"CCc1[nH]c2nc(Sc3cccnc3)nc(N3CCN(C(C)C)CC3)c2c1C=O [700,084]",> 64,
"CCc1[nH]c2nc(Sc3cccnc3)nc(N(C)CCN(C)C)c2c1C=O [700,137]",64,
